Results reported in patent US11045510B2, “Combination of aqueous extracts of watercress and nasturtium and ATP for use in the treatment of alopecia” (PIERRE FABRE DERMO-COSMETIQUE, priority 2017, dated 2021).

How the values were obtained:
[1] = tested on: hepatocyte growth factor (HGF) released by dermal papilla cells; experiment: HGF release by dermal papilla cells derived from human hair follicles; assay type: cell-based; conditions: ATP 30 μM
Procedure: (§1) The goal of this study is to evaluate the effects of the combination of an aqueous extract of watercress and of an aqueous extract of Indian cress, combined with ATP on the release of 2 anagen phase markers, hepatocyte growth factor (HGF) and keratinocyte growth factor (KGF), released by dermal papilla cells. These two growth factors have a stimulatory activity on hair growth by activating specific signalling pathways.
(§2) The studies were carried out on dermal papilla cells derived from human hair follicles from three different donors. The cells are seeded in 24-well plates and cultured for 24 h with the necessary supplements. The cells are then treated for 24 h with the products, i.e., either with ATP (30 μM), with Cressatine®, i.e., an aqueous extract of watercress and an aqueous extract of Indian cress (140 μg/ml), or with the combination ATP-Cressatine® at the same concentrations as before. The supernatants were collected for subsequent analysis of markers HGF and KGF. HGF is measured using set HCCBP1MAG-58K from EMD Millipore and KGF is measured by using set KGF/FGF-7 DuoSet ELISA DY251 from R&D Systems.

[2] = tested on: keratinocyte growth factor (KGF) released by dermal papilla cells; experiment: KGF release by dermal papilla cells derived from human hair follicles; assay type: cell-based; conditions: ATP 30 μM
Procedure: as §1, §2

[3] = cells treated for 24 h, Cressatine 140 μg/ml, combination at same concentrations, average of 3 donors

Nc1ncnc2c1ncn2[C@@H]1O[C@H](COP(=O)(O)OP(=O)(O)OP(=O)(O)O)[C@@H](O)[C@H]1O [ATP, adenosine 5′-triphosphate]
HGF [1, 3]: 92 pg/mL | modulation of the production of HGF (in words) ([1]; versus control, 24 h): does not significantly modulate | KGF [2, 3]: 37 pg/mL | higher secretion of KGF ([2]; versus control, 24 h): 50%
